For 12 molecules, GI50 and TGI results are on record in PubChem BioAssay (NCI).

Holding throughout (experiment): growth of human tumour cells (NCI), 48 h
For experiment [1], the system named is SNB-75 CNS.
For experiment [2], the system named is 786-0 renal.
The test system of experiment [3] is RXF 393 renal.
For experiment [4], the system named is M14 melanoma.
In experiment [5] the test system is SK-MEL-2 melanoma.
Experiment [6] deals with HOP-62 NSCLC.
The test system of experiment [7] is OVCAR-3 ovarian.
The test system of experiment [8] is SF-539 CNS.
Experiment [9] has as its system SK-MEL-5 melanoma.
Experiment [10] deals with UO-31 renal.

SMILES strings stand for the structures.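 96-well plates; 48 h exposure; 5 concentrations. Endpoints by linear interpolation between flanking doses. Not reached: highest tested concentration assigned. The concentration for 50% growth inhibition is given as GI50. At the TGI there is no net growth.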

`CC1(C)N=C(N)N=C(N)N1c1ccc(CCCCc2ccc(Cl)cc2S(=O)(=O)F)c(Cl)c1`: the GI50 in experiment [1] was 1.39 µM; in experiment [2] it was 0.428 µM; in experiment [3] it was 1.26 µM; in [4], 0.421 µM; in experiment [5] it was 3.07 µM; in experiment [6] it was 0.63 µM. The GI50 in experiment [7] is 0.762 µM; in experiment [8], 0.539 µM; in [9] it was 0.552 µM; in [10], 6.22 µM. The TGI in [1] stood at 23 µM; in experiment [2] it was 8.08 µM; in experiment [3] it was 20.4 µM; in [4], 17.8 µM; in [5], 25.1 µM; in [6], 12.7 µM. In addition, the TGI in experiment [7] came out at 12.2 µM; in experiment [8], 6.76 µM; in experiment [9], 12.6 µM; in experiment [10], 23.6 µM.
Take `O=c1/c(=C/c2ccccc2[N+](=O)[O-])sc2nnc(-c3ccco3)n12`: the TGI in experiment [1] is 84.7 µM; in experiment [2], over 100 µM; in experiment [3], 32.6 µM; in [4] it was 33.3 µM; in [5], 34.6 µM; in experiment [6], 39.2 µM. Moreover, the TGI in experiment [7] stood at 32.4 µM; in experiment [8], 33.9 µM; in experiment [9], 34.4 µM; in [10] it was 96.8 µM.
Regarding `COc1ccccc1/C=N\N/C(N)=N\N=C\c1ccccc1OC`, the GI50 is 0.149 µM in experiment [1]; 0.609 µM in experiment [2]; 0.265 µM in experiment [3]; 0.266 µM in experiment [4]; 0.527 µM in experiment [5]; 0.586 µM in [6]. Also, the GI50 in experiment [7] was 0.157 µM; in experiment [8], 0.264 µM; in [9] it was 0.371 µM; in experiment [10], 2.31 µM. In addition, the TGI was over 48.5 µM in experiment [1]; 5.01 µM in experiment [2]; over 100 µM in experiment [3]; 3.13 µM in experiment [4]; 10.3 µM in experiment [5]; 6.68 µM in [6]. The TGI in experiment [7] was 0.393 µM; in experiment [8], 1.02 µM; in [9] it was 4.14 µM; in [10] it was over 23.1 µM.
For the molecule `COc1cc(Nc2ncccc2C(=O)NCc2cn(Cc3cccc(Oc4ccccc4)c3)nn2)cc(OC)c1`, the GI50 is 3.98 µM in [1]; 6.73 µM in [2]; 3.77 µM in [3]; 4.8 µM in [4]; 6.68 µM in [5]; 6.31 µM in [6]. Besides, the GI50 was 3.69 µM in experiment [7], 4.39 µM in experiment [8], 3.11 µM in experiment [9] and 5.25 µM in experiment [10]. The TGI in [1], in [2], in experiment [3], in experiment [4], in experiment [5] and in experiment [6] was over 100 µM each time. In addition, the TGI in experiment [7], in experiment [8], in [9] and in experiment [10] was over 100 µM throughout.
Take `COC(=O)c1ccc2c(c1)nc(NC(=O)c1ccccc1)n2CCCc1ccccc1`: the GI50 in experiment [1] was 18.6 µM; in experiment [2] it was 4.77 µM; in [3], 16.3 µM; in experiment [4] it was 2.28 µM; in experiment [5], 5.58 µM; in [6] it was 5.03 µM. The GI50 is 7.29 µM in [7], 3.8 µM in [8], 2.13 µM in experiment [9] and 4.07 µM in [10]. Moreover, the TGI in experiment [1], in experiment [2], in [3], in experiment [4], in experiment [5] and in [6] was over 100 µM throughout. Further, the TGI in experiment [7] was over 100 µM; in experiment [8] it was over 100 µM; in [9] it was 5.87 µM; in [10], over 100 µM.
Take `CC/C=C\C[C@H](O)C/C=C1/C(=O)C(Cl)=C[C@@H]1C/C=C\CCCC(=O)OC`: the GI50 in experiment [1] is 1.88 µM; in [2] it was 0.486 µM; in experiment [3], 1.09 µM; in experiment [4], 0.611 µM; in experiment [5], 0.843 µM; in experiment [6], 0.53 µM. The GI50 in experiment [7] was 0.525 µM; in experiment [8], 0.818 µM; in experiment [9], 0.489 µM; in experiment [10], 0.413 µM. Also, the TGI in experiment [1] is 4.65 µM; in experiment [2], 1.56 µM; in experiment [3], 3.58 µM; in experiment [4], 3.43 µM; in [5] it was 3.52 µM; in [6], 2.25 µM. Further, the TGI in experiment [7] amounted to 1.88 µM; in experiment [8], 3.05 µM; in experiment [9], 1.77 µM; in [10], 1.29 µM.
As to `COC(=O)COc1ccccc1/C=C1\N=C(c2ccccc2)N(c2cc(C(F)(F)F)ccc2Cl)C1=O`, the GI50 is 34.4 µM in experiment [1]; 91.2 µM in experiment [2]; 71.6 µM in [3]; 37.9 µM in experiment [4]; 28.5 µM in experiment [5]; 45 µM in experiment [6]. The GI50 in experiment [7] is 34 µM; in experiment [8], 42.7 µM; in experiment [9], 42.9 µM; in experiment [10], 22.3 µM. Moreover, the TGI in [1], in [2], in experiment [3], in experiment [4], in experiment [5] and in [6] was over 100 µM throughout. The TGI in [7] was 98.6 µM; in [8], over 100 µM; in experiment [9], over 100 µM; in [10], 52.8 µM.
With `CC(=O)CCn1c(=S)sc2ccccc21`, the TGI in experiment [1], in [2], in experiment [3], in experiment [4], in experiment [5] and in experiment [6] was over 100 µM each time. The TGI in experiment [7], in experiment [8], in experiment [9] and in experiment [10] was over 100 µM throughout.
As for `CCN(CC)CCC(CNc1ccnc2cc(Cl)ccc12)c1ccc(Cl)cc1` (stereo not given), the GI50 is 1.3 µM in [1]; 1.34 µM in [2]; 1.04 µM in experiment [3]; 0.211 µM in experiment [4]; 1.57 µM in experiment [5]; 1.78 µM in experiment [6]. The GI50 in [7] was 1.96 µM; in [8], 1.25 µM; in [9] it was 1.11 µM; in experiment [10] it was 0.642 µM. In addition, the TGI in experiment [1] was determined as 2.64 µM; in [2], 2.68 µM; in [3], 2.32 µM; in experiment [4], 0.47 µM; in [5], 3.18 µM; in experiment [6] it was 5.9 µM. Besides, the TGI came to 5.98 µM in experiment [7], 2.77 µM in experiment [8], 2.34 µM in experiment [9] and 2.07 µM in experiment [10].
Turning to `COc1cccc(CC(C)=C(c2ccc(OCCN(C)C)cc2)c2ccc(OCCN(C)C)cc2)c1`, the GI50 in experiment [1] was 1.46 µM; in experiment [2], 0.606 µM; in [3] it was 0.779 µM; in [4], 0.612 µM; in [5], 5.19 µM; in experiment [6], 2.24 µM. Also, the GI50 in experiment [7] is 1.18 µM; in experiment [8], 0.589 µM; in [9], 4.75 µM; in experiment [10] it was 3.55 µM. Besides, the TGI in experiment [1] is 6.28 µM; in [2] it was 1.27 µM; in experiment [3] it was 4.44 µM; in experiment [4], 1.2 µM; in experiment [5], 10.9 µM; in experiment [6], 6.92 µM. Further, the TGI in experiment [7] stood at 3.42 µM; in [8], 1.1 µM; in [9], 9.26 µM; in experiment [10], 7.57 µM.
In the case of `O=C(Nc1ccc(Nc2ccncc2)cc1)c1ccc([N+](=O)[O-])cc1`, the GI50 in [1] was 4.26 µM; in experiment [2] it was 3.47 µM; in experiment [3] it was 3.35 µM; in [4], 7.18 µM; in experiment [5], 9.64 µM; in [6], 13.7 µM. The GI50 is 1.93 µM in [7], 3.58 µM in experiment [8], 4.89 µM in [9] and 3.46 µM in experiment [10]. The TGI in experiment [1] was found to be 20 µM; in experiment [2] it was 14.6 µM; in experiment [3], 12.4 µM; in experiment [4], 26.9 µM; in [5], 28.9 µM; in experiment [6], 29 µM. The TGI amounted to 3.76 µM in experiment [7], 13.2 µM in [8], 21.4 µM in experiment [9] and 10.4 µM in experiment [10].
As for `N#CN/C(N)=N/CO`, the TGI in experiment [1] was over 100 µM; in [2], over 62.1 µM; in [3], 43.5 µM; in experiment [4], over 100 µM; in experiment [5] it was over 100 µM; in experiment [6] it was over 100 µM. The TGI in [7], in experiment [8], in experiment [9] and in experiment [10] was over 100 µM throughout.
